# According to patent US11135181B2, “Treatment for depression and depressive disorders” (Medlab IP Pty Ltd, priority 2014, dated 2021):
# Key:
# Format in all cases: in vivo, human
# [1] = system: subjects diagnosed with depression; test: Outcome Questionnaire-45 (OQ45) in subjects with treatment-resistant depression; conditions: n=8
# From the text: OQ45 is a self-report symptom and distress inventory designed as an independent measure of symptom distress and functioning to assess the response to intervention at regular intervals such as on a weekly bases (α=0.93, & κ>0.83). The OQ45 consists of 45 items with a five point scale. A high total score […] indicates a high level of symptom distress (anxiety, depression, and somatic, work and social role problems). Lower scores indicate less severity of problems. Average community non-clinical scores cut off (CO) occur at about >63, and changes of 14 points in either direction are typically considered clinically significant change and are reliable. […]
# (§1) Depression was monitored in the treated subjects over the eight week course using a variety of well known methodologies: the Beck Depression Inventory (BDI); the Depression and Anxiety Stress Scale (DASS); Outcome Questionnaire-45 (OQ45); the Warwick-Edinburgh Mental Well-Being Scale (WBS); and a Quality of Life (QoL score).
# (§2) Three subjects were administered a probiotic supplement containing magnesium orotate for eight weeks, and measures of depression (BDI and OQ45) assessed. […]
# (§3) BDI and OQ45 were assessed for each subject as described in Example 1, at the beginning of the study prior to the initiation of treatment and again at the completion of eight weeks of combined magnesium orotate plus probiotic administration. […]
# [2] = system: subjects diagnosed with depression; test: Depression and Anxiety Stress Scale (DASS) in subjects with treatment-resistant depression
# From the text: The DASS short form is a 21 item self-report scale designed to measure depression and anxiety and was used here as a secondary self-report assessment. The DASS has high internal consistency and yields meaningful discriminations in a variety of settings (α=0.88-0.96).
# (§4) The study received ethical approval from the Medical Research Ethics Committee (MREC) University of Queensland, Australia, within the guidelines of the National Statement on Ethical Conduct in Human Research. All participants provided written informed consent for the study.
# (§5) The subjects were selected for inclusion in the study as follows. At the completion of a 15 week study investigating SAMe treatment of depression, suboptimal treatment responders (n=8) were inducted into the present orotate study after a 2 week wash out period. Sub-optimal treatment responders were defined as those still experiencing clinical depression by the SAMe study endpoint, which consisted of six participants with major depression and two with moderate depression. The subjects comprised six females between 33 to 70 years of age (mean age of 53 years) and two males between 48-54 years of age (mean age of 51 years). The orotate study was conducted as a single group study for 8 weeks (mean time for SAMe responders) with a focus was on efficacy.
# Inclusion criteria also required a primary diagnosis of major depression that has a verifiable history of being treatment resistant, current medication type being SSRIs (for standardisation purposes), and at least 18 years of age with no upper age limit. Participants were also asked not to take any nutritional supplements such as B group vitamins or other supplements that have antidepressant effects (a list was provided to participants). […]
# as §1
# [3] = system: subjects diagnosed with depression; test: Beck Depression Inventory (BDI) in subjects with treatment-resistant depression
# From the text: BDI is a 21-item self-report inventory that is widely used to assess depression. It has high internal constancy and correlates highly with other self-report measures of depression (α=0.60−0.90).
# as §4
# as §5, with “efficacy. […]” for “efficacy.”
# as §1, §2, §3
# [4] = system: subjects diagnosed with depression; test: Warwick-Edinburgh Mental Well-Being Scale (WBS) in subjects with treatment-resistant depression
# From the text: WBS has 14 items and assesses feelings and thoughts associated with mood (α=0.91) with higher scores indicate better mood. It has a different factor structure to the BDI and DASS and was used in this study as a measure of mood improvement.
# as §4
# The subjects were selected for inclusion in the study as follows. At the completion of a 15 week study investigating SAMe treatment of depression, suboptimal treatment responders (n=8) were inducted into the present orotate study after a 2 week wash out period. Sub-optimal treatment responders were defined as those still experiencing clinical depression by the SAMe study endpoint, which consisted of six participants with major depression and two with moderate depression. […]
# as §1
# [5] = system: subjects diagnosed with depression; test: Quality of Life (QoL) score in subjects with treatment-resistant depression
# From the text: QoL has 16 items and evaluates perceived satisfaction with life over a number of domains (α=0.85). QoL typically provides an important evaluation of perception of life circumstances and stressors.
# as §4, §5
# (§6) Inclusion criteria also required a primary diagnosis of major depression that has a verifiable history of being treatment resistant, current medication type being SSRIs (for standardisation purposes), and at least 18 years of age with no upper age limit. Participants were also asked not to take any nutritional supplements such as B group vitamins or other supplements that have antidepressant effects (a list was provided to participants).
# The magnesium orotate was administered in capsule form, each capsule comprising 400 mg magnesium orotate. […]
# as §1
# [6] = system: subjects diagnosed with depression; test: Clinical depression status at study endpoint; conditions: 8 weeks, 1600 mg per day
# From the text: as §4, §5, §6
# The magnesium orotate was administered in capsule form, each capsule comprising 400 mg magnesium orotate. The daily dose of 1600 mg magnesium orotate was provided as two capsules taken in the morning and two capsules taken at night.
# [7] = after 8 weeks of 1600 mg per day oral capsules, n=8
substance,measurement,setting,value
magnesium orotate,"OQ45 mean score, Post-Treatment",[1]; after 8 weeks of 1600 mg per day oral capsules,54.2
same,"OQ45 mean score, Pre-Treatment",[1]; baseline before treatment,86.6
same,"DASS mean score, Post-Treatment",[2]; [7],25.2
same,"DASS mean score, Pre-Treatment","[2]; baseline before treatment, n=8",44.7
same,"DASS paired difference, mean (DASS-DASS8)","[2]; baseline minus week 8, 1600 mg per day, Sig. (2-tailed) .032",19.5
same,"BDI change score (mean, pre- versus post treatment)","[3]; 8 weeks, 1600 mg per day, p=0.021",19
same,"BDI mean score, Post-Treatment",[3]; [7],14.1
same,"BDI mean score, Pre-Treatment","[3]; baseline before treatment, n=8 SAMe suboptimal responders on SSRIs",33.8
same,"WBS mean score, Pre-Treatment","[4]; baseline before treatment, n=8, higher score = better mood",34.6
same,"WBS paired difference, mean (MWBS-WMBS8)","[4]; baseline minus week 8, 1600 mg per day, Sig. (2-tailed) .025",−11
same,"QoL mean score, Post-Treatment",[5]; [7],76.0
same,"QoL mean score, Pre-Treatment","[5]; baseline before treatment, n=8",55.2
same,"QoL paired difference, mean (QoL-QoL8)","[5]; baseline minus week 8, 1600 mg per day, Sig. (2-tailed) .027",−20.75
same,share of the group in clinical remission by the endpoint,[6],50%
same,share of the group mildly depressed,[6],10%
same,share of the group that remained moderately depressed,[6],30%
same,share of the group without any clinical change,[6],10%
